The values below come from US20230113511A1, “USE OF TMAVA ANTAGONIST AND SYSTEM FOR DIAGNOSING FATTY LIVER OR HEART FAILURE” (ProgLead, Inc, priority 2020, published 2023).

Each structure is given as a SMILES string.

Data set [1] concerns mice. In words: d9-TML by gavage in mice, plasma d9-TMAVA. In kind it is in vivo.
Data set [2] addresses T1, γ-isopropylbetaine hydroxylase (Bbox) (Homo sapiens, UniProt O75936).
T1 sequence (O75936 1-387): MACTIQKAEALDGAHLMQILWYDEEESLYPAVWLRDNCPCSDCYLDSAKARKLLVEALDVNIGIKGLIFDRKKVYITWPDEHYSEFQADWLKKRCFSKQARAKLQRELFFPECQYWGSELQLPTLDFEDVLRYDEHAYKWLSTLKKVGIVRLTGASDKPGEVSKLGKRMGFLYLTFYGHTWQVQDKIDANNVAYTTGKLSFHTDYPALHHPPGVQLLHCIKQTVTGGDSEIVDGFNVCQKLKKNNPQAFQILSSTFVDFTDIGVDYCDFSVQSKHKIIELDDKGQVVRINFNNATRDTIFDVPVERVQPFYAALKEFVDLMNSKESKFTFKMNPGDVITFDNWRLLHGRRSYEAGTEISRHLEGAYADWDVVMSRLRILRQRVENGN
In words: Bbox immobilized on a graphene surface and contacted with TMAVA. In kind it is binding. The conditions noted are these: in a similar way as γ-BB to Bbox.

The target of data set [3] is T1, γ-isopropylbetaine hydroxylase (Bbox). In words: Binding affinity of Bbox and TMAVA by surface plasmon resonance. The conditions noted are these: read-out: separation rate coefficient constant (binding affinity of Bbox and TMAVA). Background: In SPR one partner is held on a chip, and binding of the other changes the refractive index at the surface.
The test system of data set [4] is mice. In words: High-fat diet mice given TMAVA in drinking water for 8 weeks (fatty liver and myocardial hypertrophy). In kind it is in vivo. The source says:
Mice in an experimental group were given a high-fat diet and drinking water dissolved with 0.325% (mass/volume %) TMAVA for 8 weeks; and mice in a control group were given a high-fat diet and normal drinking water. After 8 weeks, the mice in the experimental group and the control group were sacrificed and tested.

For data set [5], the system named is mice. In words: Lipidolysis in high-fat diet mice given TMAVA in drinking water for 8 weeks. Format: in vivo. An excerpt:
Mice in an experimental group were given a high-fat diet and drinking water dissolved with 0.325% (mass/volume %) TMAVA; and mice in a control group were given a high-fat diet and normal drinking water. After 8 weeks, the mice in the experimental group and the control group were sacrificed and tested.

The target in data set [6] is T2, γ-isopropylbetaine hydroxylase (Bbox) (Mus musculus, UniProt Q924Y0).
T2 construct: from tissue; host or cells: whole animal (mice on high-fat diet)
T2 sequence (Q924Y0 1-387): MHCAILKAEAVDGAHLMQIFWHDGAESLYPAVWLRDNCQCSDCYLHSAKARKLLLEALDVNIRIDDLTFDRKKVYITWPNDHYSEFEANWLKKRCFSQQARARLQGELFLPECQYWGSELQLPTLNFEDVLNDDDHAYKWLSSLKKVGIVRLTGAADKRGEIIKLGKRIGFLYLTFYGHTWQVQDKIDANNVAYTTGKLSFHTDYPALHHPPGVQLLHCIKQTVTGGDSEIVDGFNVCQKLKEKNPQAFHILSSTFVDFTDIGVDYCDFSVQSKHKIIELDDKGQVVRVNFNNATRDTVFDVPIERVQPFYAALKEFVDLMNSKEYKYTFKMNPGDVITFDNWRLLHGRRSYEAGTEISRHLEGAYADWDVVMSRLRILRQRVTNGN
In words: d9 carnitine formation from d9-γ-BB in high-fat diet mice given TMAVA. In kind it is in vivo. The conditions noted are these: 0.325% TMAVA in drinking water and d9-γ-BB, 8 weeks. An excerpt: Endogenous carnitine synthesis played an important role in physiological dynamic equilibrium. A carnitine precursor (γ-BB) was hydroxylated by y-isopropylbetaine hydroxylase (Bbox) to produce carnitine.
Mice in an experimental group were given a high-fat diet, drinking water dissolved with 0.325% (mass/volume %) TMAVA, and d9-γ-BB; and mice in the control group were given a high-fat diet, normal drinking water, and d9-γ-BB. After 8 weeks, the mice in the experimental group and the control group were sacrificed and tested.

Data set [7] deals with mice. In words: Carnitine absorption: d9-carnitine by gavage in TMAVA-treated mice. Format: in vivo.
Another data set addresses T3, DavA and DavB proteins (Pseudomonas putida, UniProt Q88QV1).
T3 sequence (Q88QV1 1-560): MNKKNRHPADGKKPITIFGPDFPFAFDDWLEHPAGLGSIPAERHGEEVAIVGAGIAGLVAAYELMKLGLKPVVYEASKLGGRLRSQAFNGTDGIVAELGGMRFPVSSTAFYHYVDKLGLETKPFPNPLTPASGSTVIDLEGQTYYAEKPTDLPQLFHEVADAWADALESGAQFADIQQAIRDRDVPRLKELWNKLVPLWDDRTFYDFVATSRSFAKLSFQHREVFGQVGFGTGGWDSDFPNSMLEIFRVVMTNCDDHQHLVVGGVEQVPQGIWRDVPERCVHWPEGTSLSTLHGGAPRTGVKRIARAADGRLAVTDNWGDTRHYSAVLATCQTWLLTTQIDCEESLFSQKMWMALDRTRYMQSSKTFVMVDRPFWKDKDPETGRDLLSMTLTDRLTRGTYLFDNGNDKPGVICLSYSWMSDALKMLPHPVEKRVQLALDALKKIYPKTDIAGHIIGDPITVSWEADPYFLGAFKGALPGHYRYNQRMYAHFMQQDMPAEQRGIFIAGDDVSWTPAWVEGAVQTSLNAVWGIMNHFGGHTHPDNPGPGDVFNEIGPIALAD
The conditions noted are these: purified DavA and DavB proteins from recombinant Escherichia coli strains.

For a further data set, the system named is intestinal flora. In words: Co-incubation of conventionally raised mice feces with TML. The conditions noted are these: different concentrations of TML, sterilized feces had no such effect.
Data set [8] relates to mice. In words: TML added to the drinking water of mice, urine TMAVA. In kind it is in vivo. An excerpt: The antibiotic-treated mice were then placed in conventional cages with normal (non-sterile) mice to colonize the intestinal flora.
The subject of data set [9] is mice. In words: Exogenous carnitine supplementation in TMAVA-induced fatty liver and myocardial hypertrophy in mice. Format: in vivo. The conditions noted are these: high-fat diet, 0.325% TMAVA plus 0.325% carnitine in drinking water, 8 weeks. An excerpt:
Mice were given a high-fat diet and drinking water containing 0.325% (mass/volume %) TMAVA; at the same time, one group was given TMAVA with 0.325% (mass/volume %) carnitine added to the drinking water (carnitine supplementation group).

Where [10] appears, read: histological analysis, 0.325% TMAVA.

On to `[2H]C([2H])([2H])[N+](CCCCC(N)C(=O)[O-])(C([2H])([2H])[2H])C([2H])([2H])[2H]` (centres unmarked) [d9-TML], for which the “plasma level of d9-TMAVA after d9-TML” value with mice [1] is recorded as “increase over time”.

Consider `C[N+](C)(C)CCCCC(=O)[O-]` [TMAVA, N,N,N-trimethyl-5-aminovaleric acid], for which the “binding of TMAVA to Bbox on graphene surface” value in data set [2] was “can bind to Bbox”. For the same compound, the Kd in [3] was 9.8 µM. The “concentration of TMAVA in the plasma and various tissues, increase compared with control group” value in the data set with mice [4] (0.325% (mass/volume %) TMAVA in drinking water) is reported as 10 times. In the data set with mice [4] (0.325% TMAVA in drinking water), the cardiac systolic function entry was “significantly reduced”; the “concentration of aspartate aminotransferase in the plasma compared with control group” value was “higher”; the “level of triglyceride in the liver and heart tissues compared with control group” value is recorded as “significantly higher”; the “lipid droplet content in the liver and heart tissues (oil red O) compared with control group” value was “higher”. Besides, the “liver and heart size compared with control group” value with mice [4] (0.325% TMAVA in drinking water) is recorded as “significantly larger”. The “content of triglyceride in the plasma compared with control group” value with mice [4] (fasting state, 0.325% TMAVA in drinking water) was “significantly higher”. In the data set on mice [5] (0.325% TMAVA in drinking water), the “level of free fatty acid in the blood compared with control group” value is “higher” and the “weight of the mice, decrease compared with control group” value stood at 30%. For the same compound, in the data set on mice [5] (setting [10]), the “percentage of large and medium-sized fat cells in the subcutaneous fat” value was “decreased”; the “percentage of small fat cells in the subcutaneous fat” value is “increased”. Also, the “level of d9 carnitine compared with control group” value in data set [6] was “significantly lower”. Besides, the “level of d9-carnitine in the plasma compared with normal mice” value in the data set with mice [7] is “significantly lower”.

In the case of `C[N+](C)(C)CCCC[C@H](N)C(=O)O` [TML, Trimethyllysine], at DavA and DavB proteins, the “TMAVA production in vitro from TML” value was “time-dependently produced”. Also, the “TMAVA level on co-incubation of feces with TML” value with intestinal flora was “increased over time and concentration”. Besides, the “TMAVA level in urine” value in the data set on mice [8] is “increased”.

For `C[N+](C)(C)CC(O)CC(=O)[O-]` (centres unmarked) [carnitine], in the data set with mice [9], the “aspartate aminotransferase after carnitine supplementation” value is listed as 50 U/L; the cardiac systolic function result is listed as “significantly improved”; the “content of triglyceride in the liver tissues, decrease” value worked out at 20%; the “level of free fatty acid in the plasma” value is “decreased”. For the same compound, in the data set with mice [9], the “level of triglyceride in the plasma, decrease” value came out at 50%; the “lipid content in the liver tissues (oil red O)” value is recorded as “decreased”; the “weight of the heart” value is “significantly reduced”.
